According to BigSolDB 2.1:

CCOC(=O)[C@@H](N)CCc1ccccc1.Cl
solubility (mole fraction)
Conditions | 283.15 K | 288.15 K | 293.15 K | 298.15 K | 303.15 K | 313.15 K | 323.15 K
in 1,4-dioxane | – | 0.00221 | 0.00266 | – | 0.00381 | 0.00845 | 0.0142
in 2-butanone | 0.00022 | – | 0.00031 | – | 0.0004 | 0.00073 | 0.0013
in acetone | 0.00068 | – | 0.00117 | – | 0.00182 | 0.00297 | 0.00505
in dichloromethane | 0.0172 | 0.0233 | 0.0303 | 0.0386 | 0.0489 | – | –
in ethanol | 0.031 | – | 0.0393 | – | 0.0505 | 0.0666 | 0.0867
in isobutanol | 0.0101 | – | 0.014 | – | 0.0203 | 0.0311 | 0.0472
in isopropanol | 0.00726 | – | 0.0096 | – | 0.0135 | 0.0192 | 0.0286
in methyl acetate | 4e-05 | – | 5e-05 | – | 0.00012 | 0.00024 | 0.00034
in n-butanol | 0.0128 | – | 0.0163 | – | 0.022 | 0.0253 | 0.0277
in n-pentanol | 0.0161 | – | 0.0215 | – | 0.0294 | 0.0427 | 0.0595
in n-propanol | 0.019 | – | 0.0262 | – | 0.0353 | 0.0487 | 0.0679
in sec-butanol | 0.00416 | – | 0.00614 | – | 0.00846 | 0.013 | 0.0257
